Here are results for 19 molecules from patent publication US8329702B2, “Heterocycles useful as modulators of ion channels” (Vertex Pharmaceuticals Incorporated, priority 2005, dated 2012).

pIC50: −log10 of the molar value.

The first experiment deals with T1, NaV1.8 (Homo sapiens, UniProt Q9Y5Y9). Nature of the experiment: Activity against NaV1.8 channel (Table 3). The class given is cell-based.
T1 sequence (Q9Y5Y9 whole entry, looked up): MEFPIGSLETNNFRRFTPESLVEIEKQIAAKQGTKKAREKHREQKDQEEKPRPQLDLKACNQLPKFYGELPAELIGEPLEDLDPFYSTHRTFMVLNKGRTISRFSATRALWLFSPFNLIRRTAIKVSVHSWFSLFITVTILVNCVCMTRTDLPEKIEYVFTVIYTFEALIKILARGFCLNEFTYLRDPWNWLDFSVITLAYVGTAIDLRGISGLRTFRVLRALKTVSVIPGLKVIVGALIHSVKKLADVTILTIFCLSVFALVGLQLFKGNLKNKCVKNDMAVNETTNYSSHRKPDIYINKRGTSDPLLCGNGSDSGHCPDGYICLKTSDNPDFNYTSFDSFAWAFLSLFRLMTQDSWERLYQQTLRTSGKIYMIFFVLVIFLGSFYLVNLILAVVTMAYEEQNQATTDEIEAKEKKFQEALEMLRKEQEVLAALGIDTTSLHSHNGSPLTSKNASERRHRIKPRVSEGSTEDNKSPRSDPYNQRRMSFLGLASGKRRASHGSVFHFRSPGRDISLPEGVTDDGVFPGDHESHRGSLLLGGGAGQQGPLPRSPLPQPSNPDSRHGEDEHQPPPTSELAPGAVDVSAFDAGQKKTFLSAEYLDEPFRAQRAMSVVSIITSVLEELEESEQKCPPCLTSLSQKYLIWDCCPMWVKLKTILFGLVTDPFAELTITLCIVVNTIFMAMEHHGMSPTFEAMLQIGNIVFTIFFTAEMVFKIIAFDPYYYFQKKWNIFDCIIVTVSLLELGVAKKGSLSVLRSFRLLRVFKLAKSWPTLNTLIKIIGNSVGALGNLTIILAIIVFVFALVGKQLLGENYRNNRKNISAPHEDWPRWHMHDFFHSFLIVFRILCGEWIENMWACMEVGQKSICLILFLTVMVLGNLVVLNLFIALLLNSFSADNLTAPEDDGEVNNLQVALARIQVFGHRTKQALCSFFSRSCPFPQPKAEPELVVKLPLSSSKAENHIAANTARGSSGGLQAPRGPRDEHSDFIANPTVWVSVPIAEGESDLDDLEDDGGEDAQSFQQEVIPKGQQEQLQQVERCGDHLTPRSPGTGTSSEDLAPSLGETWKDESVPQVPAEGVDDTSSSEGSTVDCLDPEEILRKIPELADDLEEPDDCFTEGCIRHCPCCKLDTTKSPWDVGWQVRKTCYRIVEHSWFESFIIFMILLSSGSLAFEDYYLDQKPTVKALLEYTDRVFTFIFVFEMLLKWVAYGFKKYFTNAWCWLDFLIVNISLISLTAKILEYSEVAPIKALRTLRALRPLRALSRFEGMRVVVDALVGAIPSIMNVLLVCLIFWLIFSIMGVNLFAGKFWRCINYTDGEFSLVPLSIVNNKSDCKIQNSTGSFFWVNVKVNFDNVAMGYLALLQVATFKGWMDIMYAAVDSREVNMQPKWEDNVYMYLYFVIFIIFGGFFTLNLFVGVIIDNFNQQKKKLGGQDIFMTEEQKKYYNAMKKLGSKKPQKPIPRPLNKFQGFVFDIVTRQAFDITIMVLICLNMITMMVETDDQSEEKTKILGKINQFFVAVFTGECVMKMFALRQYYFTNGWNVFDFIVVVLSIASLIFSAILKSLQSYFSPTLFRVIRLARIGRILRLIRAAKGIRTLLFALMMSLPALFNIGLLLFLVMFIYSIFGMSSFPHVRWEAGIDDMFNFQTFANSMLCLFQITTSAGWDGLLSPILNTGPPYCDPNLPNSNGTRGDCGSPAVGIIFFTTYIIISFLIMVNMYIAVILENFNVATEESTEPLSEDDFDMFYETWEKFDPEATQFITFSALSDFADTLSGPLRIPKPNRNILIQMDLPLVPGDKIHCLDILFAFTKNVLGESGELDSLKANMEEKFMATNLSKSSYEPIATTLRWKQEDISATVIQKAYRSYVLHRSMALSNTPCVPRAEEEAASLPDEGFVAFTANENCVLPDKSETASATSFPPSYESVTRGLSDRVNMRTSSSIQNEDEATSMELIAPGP
Conditions: not given
The method, then: Compounds of the invention are useful as antagonists of voltage-gated sodium ion channels. Antagonist properties of test compounds were assessed as follows. Cells expressing the NaV of interest were placed into microtiter plates. After an incubation period, the cells were stained with fluorescent dyes sensitive to the transmembrane potential. The test compounds were added to the microtiter plate. The cells were stimulated with either a chemical or electrical means to evoke a NaV dependent membrane potential change from unblocked channels, which was detected and measured with trans-membrane potential-sensitive dyes. Antagonists were detected as a decreased membrane potential response to the stimulus. The optical membrane potential assay utilized voltage-sensitive FRET sensors described by Gonzalez and Tsien (See, Gonzalez, J. E. and R. Y. Tsien (1995) “Voltage sensing by fluorescence resonance energy transfer in single cells” Biophys J 69(4): 1272-80, and Gonzalez, J. E. and R. Y. Tsien (1997) “Improved indicators of cell membrane potential that use fluorescence resonance energy transfer” Chem Biol 4(4): 269-77) in combination with instrumentation for measuring fluorescence changes such as the Voltage/Ion Probe Reader (VIPR®) (See, Gonzalez, J. E., K. Oades, et al. (1999) “Cell-based assays and instrumentation for screening ion-channel targets” Drug Discov Today 4(9): 431-439).
24 hours before the assay on VIPR, CHO cells endogenously expressing a NaV1.2 type voltage-gated NaV are seeded in 96-well poly-lysine coated plates at 60,000 cells per well. Other subtypes are performed in an analogous mode in a cell line expressing the NaV of interest.
The following is an example of how NaV1.3 inhibition activity is measured using the optical membrane potential method#2. Other subtypes are performed in an analogous mode in a cell line expressing the NaV of interest.
Patch clamp electrophysiology was used to assess the efficacy and selectivity of sodium channel blockers in dorsal root ganglion neurons. Rat neurons were isolated from the dorsal root ganglions and maintained in culture for 2 to 10 days in the presence of NGF (50 ng/ml) (culture media consisted of NeurobasalA supplemented with B27, glutamine and antibiotics). Small diameter neurons (nociceptors, 8-12 μm in diameter) have been visually identified and probed with fine tip glass electrodes connected to an amplifier (Axon Instruments). The “voltage clamp” mode has been used to assess the compound's IC50 holding the cells at −60 mV. In addition, the “current clamp” mode has been employed to test the efficacy of the compounds in blocking action potential generation in response to current injections. The results of these experiments have contributed to the definition of the efficacy profile of the compounds.
TTX-resistant sodium currents were recorded from DRG somata using the whole-cell variation of the patch clamp technique. Recordings were made at room temperature (˜22° C.) with thick walled borosilicate glass electrodes (WPI; resistance 3-4 MΩ) using an Axopatch 200B amplifier (Axon Instruments). After establishing the whole-cell configuration, approximately 15 minutes were allowed for the pipette solution to equilibrate within the cell before beginning recording. Currents were lowpass filtered between 2-5 kHz and digitally sampled at 10 kHz. Series resistance was compensated 60-70% and was monitored continuously throughout the experiment. The liquid junction potential (−7 mV) between the intracellular pipette solution and the external recording solution was not accounted for in the data analysis. Test solutions were applied to the cells with a gravity driven fast perfusion system (SF-77; Warner Instruments).
Dose-response relationships were determined in voltage clamp mode by repeatedly depolarizing the cell from the experiment specific holding potential to a test potential of +10 mV once every 60 seconds. […]
What is called pIC50 is −log10 of the IC50, conventionally taken in molar units. On to `Oc1ccccc1-c1csc(N2CCCCC2)n1` [Compound 1], for which the pIC50 was 4.70 to 5.00.

Turning to `CC(C)COC(=O)N1CCN(c2nc(-c3ccccc3O)cs2)CC1` [Compound 2], the pIC50 was under 4.70.

On to `COc1ccccc1-c1csc(N2CCN(C(=O)OC(C)(C)C)CC2)n1` [Compound 3], for which the pIC50 was 4.70 to 5.00.

On to `CCCCS(=O)(=O)N1CCN(c2nc(-c3ccccc3O)cs2)CC1` [Compound 4], for which the pIC50 was under 4.70.

As to `O=C([C@@H]1CCCO1)N1CCN(c2nc(-c3ccccc3O)cs2)CC1` [Compound 5], the pIC50 was under 4.70.

On to `CC(C)OC(=O)N1CCN(c2nc(-c3ccccc3O)cs2)CC1` [Compound 6], for which the pIC50 is under 4.70.

With `O=C(O[C@H]1CCOC1)N1CCN(c2nc(-c3ccccc3O)cs2)CC1` [Compound 7], the pIC50 was under 4.70.

As for `COCCOC(=O)N1CCN(c2nc(-c3ccccc3O)cs2)CC1` [Compound 8], the pIC50 is under 4.70.

Regarding `O=C(OCc1ccccc1)N1CCN(c2nc(-c3ccccc3F)cs2)CC1` [Compound 9, Benzyl 4-(4-(2-fluorophenyl)thiazol-2-yl)piperazine-1-carboxylate], the pIC50 is under 4.70.

Consider `CC(C)COC(=O)N1CCN(c2nc(-c3ccccc3F)cs2)CC1` [Compound 10, Isobutyl 4-(4-(2-fluorophenyl)thiazol-2-yl)piperazine-1-carboxylate], for which the pIC50 is under 4.70.

On to `CC(C)(C)COC(=O)N1CCN(c2nc(-c3ccccc3F)cs2)CC1` [Compound 11], for which the pIC50 is under 4.70.

Take `O=C(OC1CCOC1)N1CCN(c2nc(-c3ccccc3F)cs2)CC1` (stereo not shown) [Compound 12]: the negative-log IC50 (pIC50) is under 4.70.

Consider `COCCOC(=O)N1CCN(c2nc(-c3ccccc3F)cs2)CC1` [Compound 13], for which the pIC50 was under 4.70.

For `O=C([C@H]1CCCO1)N1CCN(c2nc(-c3ccccc3F)cs2)CC1` [Compound 14], the pIC50 was under 4.70.

In the case of `CC(C)[C@@H](O)C(=O)NCC1CCN(c2nc(-c3ccccc3O)ns2)CC1` [Compound 15], the pIC50 was under 4.70.

Regarding `CC(C)COC(=O)NC1CCN(c2nc(-c3ccccc3O)ns2)CC1` [Compound 16, Isobutyl 1-(3-(2-hydroxyphenyl)-1,2,4-thiadiazol-5-yl)piperidin-4-ylcarbamate], the pIC50 is under 4.70.

In the case of `CC(C)COC(=O)N1CCN(c2nsc(-c3ccccc3O)n2)CC1` [Compound 17, Isobutyl 4-(5-(2-hydroxyphenyl)-1,2,4-thiadiazol-3-yl)piperazine-1-carboxylate], the pIC50 was under 4.70.

The next experiment addresses T1, NaV1.8.
Assay: not given
The conditions noted are these: read-out: TTX IC50; cited from earlier work.
`NC1=N[C@H](O)[C@H]2[C@H]3O[C@]4(O)O[C@@H]([C@@H](O)[C@@]2(N1)[C@@H]4O)[C@]3(O)CO` [TTX, tetrodotoxin]: the pIC50 was under 4.30.

System in a further experiment: not given
Assay: not given
The conditions noted are these: neuropathic pain, modest efficacy; cited from earlier work.
`NCC1(CC(=O)O)CCCCC1` [Gabapentin]: the “patients in which it works” value is 60%.
